Laboratory results as given in the CheMixHub viscosity set.
“And” between values parts separate entries of the source, which are not always exact repeats. Equal values may be shown once.

Assays:
[1] = xn = mol fraction of the nth substance listed

CCOCCOCC
101.33 kPa
Conditions	viscosity [mPa·s]
298.15 K	0.602
308.15 K	0.522

CCCCCCCCCCCCCC[P+](CCCC)(CCCC)CCCC.CCCCCCCCCCCCc1ccccc1S(=O)(=O)[O-]
101 kPa
Conditions	viscosity [mPa·s]
313.15 K	1480
323.15 K	750

CCCCCCCCCC(=O)OC
100 kPa
Conditions	viscosity [mPa·s]
293.15 K	2.115
298.15 K	1.919
303.15 K	1.745
318.15 K	1.345
323.15 K	1.243

ClC(Cl)Cl
Conditions	viscosity
293.15 K, 101.33 kPa	0.5659 mPa·s
293.16 K, 101 kPa	0.563 mPa·s
298 K, 101 kPa	0.5427 mPa·s
298 K, 101.33 kPa	0.538 mPa·s
298.16 K, 101 kPa	0.542 mPa·s
303 K, 101.3 kPa	0.5254 mPa·s and 0.5249 mPa·s
303 K, 101.33 kPa	0.517 mPa·s
303.15 K, 101.3 kPa	0.5129 mPa·s and 0.5129 mPa·s and 0.5033 mPa·s
303.15 K, 101.33 kPa	0.514 mPa·s and 0.471 mPa·s
303.16 K, 101 kPa	0.514 mPa·s
303.75 K, 101 kPa	0.5393 mPa·s
308 K, 101 kPa	0.4881 mPa·s
308.15 K, 101 kPa	0.482 mPa·s
308.15 K, 101.33 kPa	0.452 mPa·s and 0.5065 mPa·s and 0.485 mPa·s
311 K, 101.3 kPa	0.4893 mPa·s and 0.4893 mPa·s
313 K, 101.33 kPa	0.479 mPa·s
313.15 K, 101 kPa	0.472 mPa·s and 0.4891 mPa·s and 0.557 mPa·s
318 K, 101 kPa	0.4487 mPa·s
318.15 K, 101.33 kPa	0.442 mPa·s
319 K, 101.3 kPa	0.4566 mPa·s and 0.4571 mPa·s
323 K, 101.33 kPa	0.447 mPa·s
323.15 K, 101 kPa	0.491 mPa·s
323.15 K, 101.33 kPa	0.4473 mPa·s

OCC(F)(F)C(F)(F)F
100 kPa
Conditions	viscosity [mPa·s]
298.15 K	3.367
323.15 K	1.518

CCn1cc[n+](C)c1.C[C@H](N)C(=O)[O-]
101 kPa
Conditions	viscosity [mPa·s]
308.15 K	137.5
313.15 K	103.5

CC[n+]1ccn(C)c1.COS(=O)(=O)[O-]
101 kPa
Conditions	viscosity
293.15 K	84.14 mPa·s
298.15 K	84.3 mPa·s and 68.5 mPa·s
303.15 K	68.7 mPa·s and 55.4 mPa·s and 57.93 mPa·s
308.15 K	56.7 mPa·s and 45.5 mPa·s
313.15 K	47.6 mPa·s and 37.9 mPa·s and 39.54 mPa·s
323.15 K	28.33 mPa·s

O=CC(Cl)(Cl)Cl
viscosity
Conditions	298.15 K	308.15 K	313.15 K	318.15 K	323.15 K
101 kPa	1.055 mPa·s and 1.055 mPa·s (2×)	0.9017 mPa·s	1.009 mPa·s and 0.8411 mPa·s	0.934 mPa·s	0.764 mPa·s and 0.7641 mPa·s and 0.869 mPa·s
101.33 kPa	1.055 mPa·s	–	–	–	0.7641 mPa·s

CC(C)C(=O)O
viscosity [mPa·s]
Conditions	293.15 K	301.15 K	302.15 K	303.15 K	305.15 K	308.15 K	311.15 K	313.15 K	315.15 K
101 kPa	–	1.168	1.148	–	1.099	1.047	1.008	0.9841	0.9512
101.33 kPa	1.326	–	–	1.12	–	–	–	1.004	–

O=C(O)CCl
Conditions	viscosity [mPa·s]
323.15 K, 101 kPa	3.091

CC(=O)OCc1ccccc1
Conditions	viscosity [mPa·s]
323.15 K, 101.33 kPa	1.23

FC(F)Cl
101 kPa
Conditions	viscosity [mPa·s]
293.25 K	0.1758
313.35 K	0.1381

CCCCCCCCCCCCCCCC
Conditions	viscosity [mPa·s]
293.15 K, 100 kPa	3.408
293.15 K, 101 kPa	3.408
293.15 K, 102 kPa	3.48
293.2 K, 101.3 kPa	3.507
298.15 K, 101 kPa	3.002
303.15 K, 101 kPa	2.703
303.2 K, 101.3 kPa	2.78
308.15 K, 101.33 kPa	2.381
318.15 K, 100 kPa	1.996
318.15 K, 101 kPa	1.996
318.15 K, 101.33 kPa	1.92
318.16 K, 101 kPa	2.039
323.15 K, 102 kPa	1.85

O=CC(Cl)(Cl)Cl + OCc1ccccc1
viscosity [mPa·s], [1], 101 kPa
Conditions	298.15 K	323.15 K
x1 = 0.0986	7.956	3.521
x1 = 0.1891	12.34	4.774
x1 = 0.2795	18.57	6.41
x1 = 0.3562	21.83	6.783
x1 = 0.4064	40.42	9.558
x1 = 0.4364	50.35	10.85
x1 = 0.4751	55.16	10.57
x1 = 0.493	54.24	10.21
x1 = 0.4998	51.18	10.01
x1 = 0.5395	39.89	8.491
x1 = 0.5925	24.53	6.78
x1 = 0.6679	9.262	3.796
x1 = 0.7564	2.888	1.639
x1 = 0.8827	2.072	1.307

CCCCCCCCCC(=O)OC + CCCO
viscosity [mPa·s], [1], 100 kPa
Conditions	x1 = 0.0999	x1 = 0.1999	x1 = 0.2999	x1 = 0.3995	x1 = 0.4995	x1 = 0.599	x1 = 0.6999	x1 = 0.8002	x1 = 0.8976
298.15 K	1.745	1.671	1.648	1.652	1.676	1.702	1.746	1.788	1.859
303.15 K	1.566	1.506	1.487	1.495	1.515	1.547	1.583	1.622	1.692
308.15 K	1.408	1.361	1.35	1.36	1.38	1.413	1.442	1.482	1.546
313.15 K	1.271	1.236	1.228	1.241	1.262	1.295	1.325	1.36	1.418
318.15 K	1.151	1.124	1.124	1.136	1.161	1.19	1.216	1.252	1.304
323.15 K	1.045	1.027	1.031	1.045	1.067	1.097	1.126	1.158	1.207
